Broadly, the Km is the substrate concentration at which the rate is half of its maximum.

For the assay, the system named is A. pullulans NAC8 yellow laccase. As to the kind of experiment: absorbance at […] nm, double reciprocal plot. To be noted: guaiacol 0.1-3.0 mM; standard assay: acetate buffer pH 5.0, 25 °C. It counts as biochemical, Aureobasidium pullulans.

Molecules are shown by their SMILES.

As to `COc1ccccc1O` [guaiacol, 2-methoxyphenol], the Km was 1050 ± 120 µM.

For the origin of these results see publication PMC6299892 (Journal of Genetic Engineering & Biotechnology, 2016).
